Results from PubChem BioAssay AID2060899 (Molecular Pharmacology Branch, DTP, NCI, 2025).

Test system: 565726-208-R1-J5-PDC complex spheroids, growth inhibition
Assay: Anticancer human tumor 565726-208-R1-J5-PDC patient-derived pancreatic adenocarcinoma cell line growth inhibition [RAS]
Details: for viability, T/C: stronger effect = lower value
Outline: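 Multi-cell-type spheroids: tumor cells plus HUVEC endothelial cells and mesenchymal stem cells. RAS-pathway inhibitors were combined with targeted agents, each dosed in half-log steps down from clinical Cmax, or from 10 microM when Cmax was unknown.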

[1] = curve of first compound, second compound 0.0316 µM
[2] = curve of first compound, second compound 0.1 µM
[3] = curve of first compound, second compound 0.316 µM
[4] = curve of first compound, second compound 1 µM
[5] = second compound 0.0316 µM, first compound 0.00316 µM
[6] = second compound 0.0316 µM, first compound 0.01 µM
[7] = second compound 0.0316 µM, first compound 0.0316 µM
[8] = second compound 0.0316 µM, first compound 0.1 µM
[9] = second compound 0.1 µM, first compound 0.00316 µM
[10] = second compound 0.1 µM, first compound 0.01 µM
[11] = second compound 0.1 µM, first compound 0.0316 µM
[12] = second compound 0.1 µM, first compound 0.1 µM
[13] = second compound 0.316 µM, first compound 0.00316 µM
[14] = second compound 0.316 µM, first compound 0.01 µM
[15] = second compound 0.316 µM, first compound 0.0316 µM
[16] = second compound 0.316 µM, first compound 0.1 µM
[17] = second compound 1 µM, first compound 0.00316 µM
[18] = second compound 1 µM, first compound 0.01 µM
[19] = second compound 1 µM, first compound 0.0316 µM
[20] = second compound 1 µM, first compound 0.1 µM
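Also: spheroids exposed to compounds for seven days before readout.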
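For viability, T/C in this document: 100% = DMSO vehicle control viability.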

`CCN1CCN(Cc2ccc(Nc3ncc(F)c(-c4cc(F)c5nc(C)n(C(C)C)c5c4)n3)nc2)CC1` + C=CC(=O)N1CCN(c2nc(OCC3CCCN3C)nc3c(F)c(-c4nc(N)cc(C)c4C(F)(F)F)c(Cl)cc23)C(C)C1 showed an IC50 (curve of first compound, second compound 0.00316 µM) of over 1000 nM, an IC50 (curve of first compound, second compound 0.01 µM) of over 1000 nM and an IC50 [1] of over 1000 nM. It also gave an IC50 [2] of over 1000 nM, an IC50 [3] of over 1000 nM and an IC50 [4] of over 1000 nM. It also gave a viability, T/C (second compound 0.00316 µM, first compound 0.00316 µM) of 92.8%, a viability, T/C (second compound 0.00316 µM, first compound 0.01 µM) of 137% and a viability, T/C (second compound 0.00316 µM, first compound 0.0316 µM) of 93.5%. For the same molecule, the viability, T/C (second compound 0.00316 µM, first compound 0.1 µM) was 72.2%, the viability, T/C (second compound 0.00316 µM, first compound 0.316 µM) was 82.8% and the viability, T/C (second compound 0.00316 µM, first compound 1 µM) was 119%. It also gave a viability, T/C (second compound 0.01 µM, first compound 0.00316 µM) of 101%, a viability, T/C (second compound 0.01 µM, first compound 0.01 µM) of 134% and a viability, T/C (second compound 0.01 µM, first compound 0.0316 µM) of 98.2%. The viability, T/C (second compound 0.01 µM, first compound 0.1 µM) was 63%, the viability, T/C (second compound 0.01 µM, first compound 0.316 µM) was 79.2% and the viability, T/C (second compound 0.01 µM, first compound 1 µM) was 119%. It also gave a viability, T/C [5] of 163%, a viability, T/C [6] of 144% and a viability, T/C [7] of 109%. It also gave a viability, T/C [8] of 77.1%, a viability, T/C (second compound 0.0316 µM, first compound 0.316 µM) of 61% and a viability, T/C (second compound 0.0316 µM, first compound 1 µM) of 103%. The viability, T/C [9] was 135%, the viability, T/C [10] was 124% and the viability, T/C [11] was 83.1%. It also gave a viability, T/C [12] of 87.4%, a viability, T/C (second compound 0.1 µM, first compound 0.316 µM) of 61.1% and a viability, T/C (second compound 0.1 µM, first compound 1 µM) of 118%. It also gave a viability, T/C [13] of 141%, a viability, T/C [14] of 136% and a viability, T/C [15] of 85%. For the same molecule, the viability, T/C [16] was 100%, the viability, T/C (second compound 0.316 µM, first compound 0.316 µM) was 58.8% and the viability, T/C (second compound 0.316 µM, first compound 1 µM) was 116%. For the same molecule, the viability, T/C [17] was 117%, the viability, T/C [18] was 129% and the viability, T/C [19] was 89.5%. For the same molecule, the viability, T/C [20] was 66%, the viability, T/C (second compound 1 µM, first compound 0.316 µM) was 78.2% and the viability, T/C (second compound 1 µM, first compound 1 µM) was 110%.
For `CC(=O)OC12COC1CC(O)C1(C)C(=O)C(O)C3=C(C)C(OC(=O)C(O)C(NC(=O)OC(C)(C)C)c4ccccc4)CC(O)(C(OC(=O)c4ccccc4)C21)C3(C)C` (stereo not drawn), the viability, T/C (compound 0.0316 µM) was 20.4% [middle of 4 runs], the viability, T/C (compound 0.1 µM) was 20.9% [middle of 4 runs] and the viability, T/C (compound 0.316 µM) was 19.3% [middle of 4 runs]. For the same molecule, the viability, T/C (compound 1 µM) was 19.9% [middle of 4 runs], the viability, T/C (compound 3.16 µM) was 24.2% [middle of 4 runs] and the viability, T/C (compound 10 µM) was 27% [middle of 4 runs]. The IC50 (curve of compound) was under 31.6 nM.
`CC(C)n1nc(-c2ccc3oc(N)nc3c2)c2c(N)ncnc21` + C#Cc1c(F)ccc2cc(O)cc(-c3ncc4c(N5CC6CCC(C5)N6)nc(OCC56CCCN5CC(F)C6)nc4c3F)c12 showed an IC50 [1] of over 100 nM, an IC50 [2] of over 100 nM and an IC50 [3] of over 100 nM. The IC50 [4] was 14.4 nM, the IC50 (curve of first compound, second compound 3.16 µM) was 5.06 nM and the IC50 (curve of first compound, second compound 10 µM) was 4.63 nM. For the same molecule, the viability, T/C (second compound 0.0316 µM, first compound 0.000316 µM) was 108%, the viability, T/C (second compound 0.0316 µM, first compound 0.001 µM) was 156% and the viability, T/C [5] was 87.2%. For the same molecule, the viability, T/C [6] was 68.4%, the viability, T/C [7] was 63.7% and the viability, T/C [8] was 49.2%. For the same molecule, the viability, T/C (second compound 0.1 µM, first compound 0.000316 µM) was 123%, the viability, T/C (second compound 0.1 µM, first compound 0.001 µM) was 135% and the viability, T/C [9] was 73.8%. It also gave a viability, T/C [10] of 72.5%, a viability, T/C [11] of 59.7% and a viability, T/C [12] of 51%. For the same molecule, the viability, T/C (second compound 0.316 µM, first compound 0.000316 µM) was 123%, the viability, T/C (second compound 0.316 µM, first compound 0.001 µM) was 149% and the viability, T/C [13] was 83.5%. The viability, T/C [14] was 59.8%, the viability, T/C [15] was 50.6% and the viability, T/C [16] was 42.8%. For the same molecule, the viability, T/C (second compound 1 µM, first compound 0.000316 µM) was 126%, the viability, T/C (second compound 1 µM, first compound 0.001 µM) was 115% and the viability, T/C [17] was 68.3%. It also gave a viability, T/C [18] of 62.4%, a viability, T/C [19] of 41.7% and a viability, T/C [20] of 40%. It also gave a viability, T/C (second compound 3.16 µM, first compound 0.000316 µM) of 111%, a viability, T/C (second compound 3.16 µM, first compound 0.001 µM) of 107% and a viability, T/C (second compound 3.16 µM, first compound 0.00316 µM) of 56.5%. For the same molecule, the viability, T/C (second compound 3.16 µM, first compound 0.01 µM) was 47.7%, the viability, T/C (second compound 3.16 µM, first compound 0.0316 µM) was 32.9% and the viability, T/C (second compound 3.16 µM, first compound 0.1 µM) was 30.6%. For the same molecule, the viability, T/C (second compound 10 µM, first compound 0.000316 µM) was 96.9%, the viability, T/C (second compound 10 µM, first compound 0.001 µM) was 80.5% and the viability, T/C (second compound 10 µM, first compound 0.00316 µM) was 56.4%. It also gave a viability, T/C (second compound 10 µM, first compound 0.01 µM) of 36%, a viability, T/C (second compound 10 µM, first compound 0.0316 µM) of 25.6% and a viability, T/C (second compound 10 µM, first compound 0.1 µM) of 18.4%.
For `CC1(O)CCCC1n1c(=O)c(C(F)F)cc2cnc(NC3CCN(S(C)(=O)=O)CC3)nc21` (stereo not drawn) + CCn1c(-c2cc(N3CCN(C)CC3)cnc2C(C)OC)c2c3cc(ccc31)-c1csc(n1)CC(NC(=O)C1CC1C)C(=O)N1CCCC(N1)C(=O)OCC(C)(C)C2, the IC50 (curve of first compound, second compound 0.000949 µM) was 1010 nM, the IC50 (curve of first compound, second compound 0.003 µM) was under 31.6 nM and the IC50 (curve of first compound, second compound 0.00949 µM) was under 31.6 nM. It also gave an IC50 (curve of first compound, second compound 0.03 µM) of under 31.6 nM, an IC50 (curve of first compound, second compound 0.0949 µM) of under 31.6 nM and an IC50 (curve of first compound, second compound 0.3 µM) of under 31.6 nM. The viability, T/C (second compound 0.000949 µM, first compound 0.0316 µM) was 58%, the viability, T/C (second compound 0.000949 µM, first compound 0.1 µM) was 46.6% and the viability, T/C (second compound 0.000949 µM, first compound 0.316 µM) was 47.6%. For the same molecule, the viability, T/C (second compound 0.000949 µM, first compound 1 µM) was 50.4%, the viability, T/C (second compound 0.000949 µM, first compound 3.16 µM) was 33.1% and the viability, T/C (second compound 0.000949 µM, first compound 10 µM) was 3.21%. It also gave a viability, T/C (second compound 0.003 µM, first compound 0.0316 µM) of 48.5%, a viability, T/C (second compound 0.003 µM, first compound 0.1 µM) of 45.7% and a viability, T/C (second compound 0.003 µM, first compound 0.316 µM) of 43.9%. The viability, T/C (second compound 0.003 µM, first compound 1 µM) was 37.1%, the viability, T/C (second compound 0.003 µM, first compound 3.16 µM) was 26.5% and the viability, T/C (second compound 0.003 µM, first compound 10 µM) was 2.82%. The viability, T/C (second compound 0.00949 µM, first compound 0.0316 µM) was 41.4%, the viability, T/C (second compound 0.00949 µM, first compound 0.1 µM) was 36.7% and the viability, T/C (second compound 0.00949 µM, first compound 0.316 µM) was 37.6%. It also gave a viability, T/C (second compound 0.00949 µM, first compound 1 µM) of 31.7%, a viability, T/C (second compound 0.00949 µM, first compound 3.16 µM) of 25% and a viability, T/C (second compound 0.00949 µM, first compound 10 µM) of 3.34%. For the same molecule, the viability, T/C (second compound 0.03 µM, first compound 0.0316 µM) was 34.2%, the viability, T/C (second compound 0.03 µM, first compound 0.1 µM) was 29.8% and the viability, T/C (second compound 0.03 µM, first compound 0.316 µM) was 31.3%. For the same molecule, the viability, T/C (second compound 0.03 µM, first compound 1 µM) was 31.2%, the viability, T/C (second compound 0.03 µM, first compound 3.16 µM) was 17.3% and the viability, T/C (second compound 0.03 µM, first compound 10 µM) was 3.06%. The viability, T/C (second compound 0.0949 µM, first compound 0.0316 µM) was 25.7%, the viability, T/C (second compound 0.0949 µM, first compound 0.1 µM) was 25.4% and the viability, T/C (second compound 0.0949 µM, first compound 0.316 µM) was 26%. For the same molecule, the viability, T/C (second compound 0.0949 µM, first compound 1 µM) was 24.2%, the viability, T/C (second compound 0.0949 µM, first compound 3.16 µM) was 15.3% and the viability, T/C (second compound 0.0949 µM, first compound 10 µM) was 2.88%. The viability, T/C (second compound 0.3 µM, first compound 0.0316 µM) was 19.9%, the viability, T/C (second compound 0.3 µM, first compound 0.1 µM) was 25.7% and the viability, T/C (second compound 0.3 µM, first compound 0.316 µM) was 22%. For the same molecule, the viability, T/C (second compound 0.3 µM, first compound 1 µM) was 24.2%, the viability, T/C (second compound 0.3 µM, first compound 3.16 µM) was 14.6% and the viability, T/C (second compound 0.3 µM, first compound 10 µM) was 3.06%.
